The values that follow come from patent publication US20020082213A1 (priority 1996, published 2002).

In assay [1] the test system is female albino mice (Ibm: MORO). As to the kind of experiment: Operant conflict test for anxiolytic effect. Format: in vivo. The following applies: 10 mg/kg oral, 30 minutes prior to testing.
In the next assay the test system is LC132 receptors. The following applies: cited from earlier work.

As to `CN1C(=O)CN=C(c2ccccc2)c2cc(Cl)ccc21` [diazepam], in assay [1], the punished lever-pressing result is “enhanced punished lever-pressing” and the unpunished responding entry is on record as “some reduction of unpunished responding”.

Regarding dynorphin A, the “inhibition of cyclic AMP formation” value with LC132 receptors was “weakly inhibited”.
